Earlier results, collected in publication PMC5096457 (Cell chemical biology, 2016).

What was measured:
[1] = tested on: NIH 3T3 Src−/− cells overexpressing Src (Y529F); conditions: high micromolar concentrations; ref Georghiou et al., 2012
[2] = tested on: c-Kit; conditions: ref DiNitto et al., 2010

| SMILES | global tyrosine phosphorylation [1] | fold increase in IC50 against activated kinase target [2] |
| --- | --- | --- |
| NC(=O)[C@@H]1CCCNC(=O)[C@H](Cc2ccc([N+](=O)[O-])cc2)NC(=O)[C@H](Cc2ccc(F)cc2)NC(=O)[C@H](CC2CCCCC2)NC(=O)/C=C/C(=O)N1 [MC25a] | decreased global tyrosine phosphorylation | – |
| CCN(CC)CCNC(=O)c1c(C)[nH]c(/C=C2\C(=O)Nc3ccc(F)cc32)c1C [sunitinib] | – | 300 fold |
